Data taken from patent publication US20120309622A1, “HERBICIDES CONTAINING SUBSTITUTED THIEN-3-YL-SULPHONYLAMINIO(THIO)CARBONYL-TRIAZOLIN(ETHI)ONES” (BAYER INTELLECTUAL PROPERTY GMBH, priority 2001, published 2012).
Several values for one entry are separate records, joined by “and”; a condition that tells them apart may be missing. Identical values can stand only once. Like-named read-outs stand apart in the source and are kept apart here.

What was measured:
Assay type in all cases: in vivo
[1] = system: Polygonum convolvolus; assay: Post-emergence test/greenhouse, % damage after three weeks
[2] = system: Cassia tora; assay: as above
Procedure: (§1) The expected action for a given combination of two herbicides can be calculated as follows (cf. COLBY, S. R.: “Calculating synergistic and antagonistic responses of herbicide combinations”, Weeds 15, pages 20-22, 1967):
(§2) If the actual damage exceeds the calculated value, the combination has a superadditive effect, that is to say a synergistic effect.
(§3) Test plants are grown under control conditions (temperature and light).
(§4) Following the spray application, the plant containers are kept in the greenhouse under constant light and temperature conditions.
(§5) After three weeks, the degree of damage to the plants is rated in % damage in comparison to the development of the untreated control.

[3] = system: Veronica persicaria; assay: as above
Procedure: as §1, §2, §3, §4, §5

[4] = system: Bromus secalinus; assay: as above; conditions: for pest or weed control at 2 g/ha: 2 g of ai/ha; for pest or weed control at 4 g/ha: 4 g of ai/ha
Procedure: as §1, §2, §3, §4, §5

[5] = system: Lolium perenne; assay: as above
[6] = system: Abutilon theophrasti; assay: as above
Excerpt: as §1
(§6) If • X=% damage by herbicide A (active compound of the formula I) at an application rate of p kg/ha and • Y=% damage by herbicide B (active compound of the formula II) at an application rate of q kg/ha and • E=the expected damage of herbicides A+B at an application rate of p+q kg/ha, then
as §2
(§7) Test plants are grown under control conditions (temperature and light). Once the plants have reached a height of 5 to 15 cm, the test compound or the combination of test compounds is applied by spraying such that the particular amounts of active compound desired are applied per unit area. The concentration of the spray liquor is chosen so that the particular amounts of active compound desired are applied in 500 litres of water/ha.
as §4, §5
(§8) The figures denote: • 0%=no effect (like untreated control) • 100%=total destruction

[7] = system: Avena fatua; assay: as above
Excerpt: as §1, §6, §2, §7, §4, §5, §8

[8] = system: Matricaria inodora; assay: as above
Excerpt: as §1, §6, §2, §7, §4, §5, §8

[9] = system: Xanthium strumarium; assay: as above
Excerpt: as §1, §6, §2, §7, §4, §5, §8

[10] = system: Viola arvensis; assay: as above
Excerpt: as §1, §6, §2, §7, §4, §5, §8

[11] = system: Alopecurus myosuroides; assay: as above
Excerpt: as §1, §6, §2, §7, §4, §5, §8

[12] = system: Cyperus esculentus; assay: as above
Excerpt: as §1, §6, §2, §7, §4, §5, §8

[13] = system: Chenopodium album; assay: as above
Excerpt: as §1, §6, §2, §7, §4, §5, §8

[14] = system: Ipomoea hederacea; assay: as above
Excerpt: as §1, §6, §2, §7, §4, §5, §8

[15] = system: Setaria viridis; assay: as above; conditions: for Setria viridis observed: post-emergence
Excerpt: as §1, §6, §2, §7, §4, §5, §8

[16] = system: Digitaria sanguinalis; assay: as above
Excerpt: as §1, §6, §2, §7, §4, §5, §8

[17] = system: Eriochloa villosa; assay: as above
[18] = system: test plants; assay: Post-emergence test/greenhouse, % damage after three weeks (further test plants, Tables A-1-30 to A-1-104)
Excerpt: as §1, §6, §2, §7, §4, §5, §8

[19] = system: Galium aparine; assay: Post-emergence test/greenhouse, % damage after three weeks
[20] = Bromus secalinus, post-emergence, 504 h, read-out: Bromus secalinus observed
[21] = application rate 125 g of ai/ha

## COC(=O)c1csc(C)c1S(=O)(=O)NC(=O)n1nc(OC)n(C)c1=O [I-2]
[1]; 2 g of ai/ha
  Polygonum convolvolus observed: 70%
[1]; 4 g of ai/ha
  Polygonum convolvolus observed: 70% and 80%
[2]; 2 g of ai/ha
  Cassia tora observed: 20%
[2]; 4 g of ai/ha
  Cassia tora observed: 0%
[2]; 8 g of ai/ha
  Cassia tora observed: 0%
[3]; 2 g of ai/ha
  Veronica persicaria observed: 0%
[3]; 15 g of ai/ha
  Veronica persicaria observed: 60% and 40%
[4]; [20]
  pest or weed control at 2 g/ha: 70%
  pest or weed control at 4 g/ha: 70%
[4]; Bromus secalinus, post-emergence, 504 h, 8 g of ai/ha, read-out: Bromus secalinus observed
  pest or weed control at 8 g/ha: 80%
[4]; Bromus secalinus, post-emergence, 504 h, 15 g of ai/ha, read-out: Bromus secalinus observed
  pest or weed control at 15 g/ha: 70%
[4]; Bromus secalinus, post-emergence, 504 h, application rate 8 g of ai/ha, read-out: Bromus secalinus observed
  pest or weed control at 8 g/ha: 80%
[5]; 2 g of ai/ha
  Lolium perenne observed: 70% and 80%
[5]; 4 g of ai/ha
  Lolium perenne observed: 70%
[5]; 8 g of ai/ha
  Lolium perenne observed: 90%
[6]; 2 g of ai/ha
  Abutilon theophrasti observed: 60%
[6]; 4 g of ai/ha
  Abutilon theophrasti observed: 70%
[6]; 8 g of a.i./ha
  Activity against Abutilon theophrasti (%): 70%
[7]; 2 g of ai/ha
  Avena fatua observed: 70% and 50% and 80%
[7]; 4 g of ai/ha
  Avena fatua observed: 80% and 70% and 90%
[7]; 8 g of ai/ha
  Avena fatua observed: 70% and 90%
[7]; 15 g of ai/ha
  Avena fatua observed: 70%
[8]; 2 g of ai/ha
  Matricaria inodora observed: 50% and 80%
[8]; 4 g of ai/ha
  Matricaria inodora observed: 70%
[8]; 15 g of ai/ha
  Matricaria inodora observed: 95%
[9]; 4 g of ai/ha
  Xanthium strumarium observed: 90%
[9]; 8 g of ai/ha
  Xanthium strumarium observed: 70%
[10]; 4 g of ai/ha
  Viola arvensis observed: 40%
[10]; 8 g of ai/ha
  Viola arvensis observed: 50%
[11]; 2 g of ai/ha
  Alopecurus myosuroides observed: 70% and 80%
[11]; 4 g of ai/ha
  Alopecurus myosuroides observed: 70% and 80%
[11]; 8 g of ai/ha
  Alopecurus myosuroides observed: 90% and 80%
[11]; 15 g of ai/ha
  Alopecurus myosuroides observed: 90% and 80%
[12]; 8 g of ai/ha
  Cyperus esculentus observed: 80% and 70%
[12]; 15 g of ai/ha
  Cyperus esculentus observed: 70%
[13]; 4 g of ai/ha
  Chenopodium album observed: 70%
[13]; 8 g of a.i./ha
  Activity against Chenopodium album (%): 70%
[13]; 8 g of ai/ha
  Chenopodium album observed: 85%
[13]; application rate 2 g of ai/ha
  Chenopodium album observed: 70%
[14]; 2 g of ai/ha
  Ipomoea hederacea observed: 80%
[14]; 4 g of ai/ha
  Ipomoea hederacea observed: 80%
[14]; 8 g of ai/ha
  Ipomoea hederacea observed: 80%
[15]; 2 g of ai/ha
  Setaria viridis observed: 90%
[15]; 4 g of ai/ha
  Setaria viridis observed: 80% and 90%
[15]; 8 g of ai/ha
  Setaria viridis observed: 90% and 95%
[15]; application rate 2 g of ai/ha
  Setria viridis observed: 90%
[15]; application rate 4 g of ai/ha
  Setria viridis observed: 90%
[16]; 4 g of ai/ha
  Digitaria sanguinalis observed: 60%
[16]; 8 g of ai/ha
  Digitaria sanguinalis observed: 80% and 90%
[17]; 4 g of ai/ha
  Eriochloa villosa observed: 40% and 30%
[17]; 8 g of ai/ha
  Eriochloa villosa observed: 70% and 60% and 90%
[18]; application rate 2 g of ai/ha
  Polygonum convolvolus observed: 70%
[18]; application rate 4 g of ai/ha
  Polygonum convolvolus observed: 80%
[18]; application rate 8 g of ai/ha
  Polygonum convolvolus observed: 90%
[19]; 4 g of ai/ha
  Galium aparine observed: 80%

## CCOC(=O)[C@@H](C)Oc1ccc(Oc2nc3ccc(Cl)cc3o2)cc1 [fenoxaprop-(P)-ethyl, reference compound]
[3]; 8 g of ai/ha
  Veronica persicaria observed: 0%
[3]; 15 g of ai/ha
  Veronica persicaria observed: 0%
[3]; 30 g of ai/ha
  Veronica persicaria observed: 0%
[4]; 8 g of ai/ha
  Bromus secalinus observed: 0%
[4]; 15 g of ai/ha
  Bromus secalinus observed: 0%
[4]; 30 g of ai/ha
  Bromus secalinus observed: 0%
[14]; 30 g of ai/ha
  Ipomoea hederacea observed: 0%

## COc1nn(C(=O)NS(=O)(=O)c2ccccc2OC(F)(F)F)c(=O)n1C.[Na] [flucarbazone-sodium, 4,5-dihydro-3-methoxy-4-methyl-5-oxo-N-[(2-trifluoromethoxyphenyl)-sulphonyl]-1-H-1,2,4-triazole-1-carboxamide sodium salt, reference compound]
[3]; 30 g of ai/ha
  Veronica persicaria observed: 20%
[3]; 60 g of ai/ha
  Veronica persicaria observed: 60%
[4]; 60 g of ai/ha
  Bromus secalinus observed: 70%
[10]; 15 g of ai/ha
  Viola arvensis observed: 30%

## COC(=O)c1ccc(C(F)(F)F)nc1S(=O)(=O)NC(=O)Nc1nc(OC)cc(OC)n1.[Na] [flupyrsulfuron, N-(4,6-dimethoxypyrimidin-2-yl)-N′-(3-methoxycarbonyl-6-trifluoromethylpyridin-2-ylsulphonyl)urea sodium salt, reference compound]
[1]; 2 g of ai/ha
  Polygonum convolvolus observed: 70%
[1]; 4 g of ai/ha
  Polygonum convolvolus observed: 80%
[4]; [20]
  pest or weed control at 2 g/ha: 0%
  pest or weed control at 4 g/ha: 0%
[16]; 4 g of ai/ha
  Digitaria sanguinalis observed: 20%

## COc1cc(OC)nc(NC(=O)NS(=O)(=O)c2cc(NC=O)ccc2C(=O)N(C)C)n1 [foramsulfuron]
[12]; 8 g of ai/ha
  Cyperus esculentus observed: 80%
[14]; 15 g of ai/ha
  Ipomoea hederacea observed: 80%
[17]; 15 g of ai/ha
  Eriochloa villosa observed: 60%

## Cc1cc(Cl)ccc1O[C@@H](C)C(=O)O [mecoprop-P]
[8]; 125 g of ai/ha
  Matricaria inodora observed: 0%
[8]; 250 g of ai/ha
  Matricaria inodora observed: 0%
[16]; 125 g of ai/ha
  Digitaria sanguinalis observed: 40%
[16]; 250 g of ai/ha
  Digitaria sanguinalis observed: 70%
[19]; 125 g of ai/ha
  Galium aparine observed: 20%
[19]; 250 g of ai/ha
  Galium aparine observed: 40%

## COc1cc(OC)n2nc(S(=O)(=O)Nc3c(Cl)ccc(C)c3Cl)nc2n1 [metosulam, N-(2,6-dichloro-3-methylphenyl)-5,7-dimethoxy-1,2,4-tri-azolo[1,5-a]-pyrimidine-2-sulphonamide, reference compound]
[3]; 4 g of ai/ha
  Veronica persicaria observed: 80%
[6]; 12.5 g of a.i./ha
  Activity against Abutilon theophrasti (%): 60%
[6]; 25 g of a.i./ha
  Activity against Abutilon theophrasti (%): 70%
[7]; 8 g of ai/ha
  Avena fatua observed: 0%
[9]; 12.5 g of a.i./ha
  Activity against Xanthium strumarum (%): 60%
[9]; 25 g of a.i./ha
  Activity against Xanthium strumarum (%): 90%
[16]; 8 g of ai/ha
  Digitaria sanguinalis observed: 30%

## CCCOc1nn(C(=O)[N-]S(=O)(=O)c2ccccc2C(=O)OC)c(=O)n1C.[Na+] [propoxycarbazone-sodium]
[1]; 30 g of ai/ha
  Polygonum convolvolus observed: 0%
[1]; 60 g of ai/ha
  Polygonum convolvolus observed: 0%
[2]; 30 g of ai/ha
  Cassia tora observed: 30%
[3]; 60 g of ai/ha
  Veronica persicaria observed: 40%

## CCS(=O)(=O)c1cccnc1S(=O)(=O)NC(=O)Nc1nc(OC)cc(OC)n1 [rimsulfuron]
[2]; 4 g of ai/ha
  Cassia tora observed: 60%
[2]; 8 g of ai/ha
  Cassia tora observed: 80%
[6]; 4 g of ai/ha
  Abutilon theophrasti observed: 70%
[7]; 4 g of ai/ha
  Avena fatua observed: 70%
[7]; 8 g of ai/ha
  Avena fatua observed: 70%

## flufenacet
[4]; application rate 30 g of ai/ha
  Bromus secalinus observed: 0%
[4]; application rate 60 g of ai/ha
  Bromus secalinus observed: 20%
[4]; [21]
  Bromus secalinus observed: 40%
[13]; application rate 30 g of ai/ha
  Chenopodium album observed: 0%
[13]; application rate 60 g of ai/ha
  Chenopodium album observed: 0%
[13]; [21]
  Chenopodium album observed: 0%
[18]; application rate 30 g of ai/ha
  Polygonum convolvolus observed: 0%
[18]; application rate 60 g of ai/ha
  Polygonum convolvolus observed: 0%
[18]; [21]
  Polygonum convolvolus observed: 0%
